Paper PMC5123592 (Nature chemistry, 2016)

What was measured:
[1] = target: T1, ZMPSTE24 (Homo sapiens, UniProt O75844); experiment: native mass spectrometry titration; type: binding
T1 sequence (O75844 1-475): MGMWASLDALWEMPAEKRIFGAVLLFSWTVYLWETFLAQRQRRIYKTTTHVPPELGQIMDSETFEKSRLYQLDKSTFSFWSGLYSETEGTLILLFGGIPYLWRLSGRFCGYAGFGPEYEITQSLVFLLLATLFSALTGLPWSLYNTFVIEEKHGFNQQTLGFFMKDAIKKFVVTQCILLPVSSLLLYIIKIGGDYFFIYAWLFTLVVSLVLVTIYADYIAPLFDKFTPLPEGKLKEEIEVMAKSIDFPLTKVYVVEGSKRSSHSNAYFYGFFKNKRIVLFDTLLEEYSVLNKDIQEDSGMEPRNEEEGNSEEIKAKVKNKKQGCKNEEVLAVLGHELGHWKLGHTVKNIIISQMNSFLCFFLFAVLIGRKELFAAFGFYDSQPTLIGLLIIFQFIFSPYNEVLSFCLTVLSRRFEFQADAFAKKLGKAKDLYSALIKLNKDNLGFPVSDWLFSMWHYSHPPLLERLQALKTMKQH

[2] = target: T1, ZMPSTE24; experiment: native mass spectrometry; type: binding; details: 15 μM drug, equimolar ZMPSTE24, C8E4

| Kd [1] | Structure (SMILES) | binding observed at 15 μM [2] |
| --- | --- | --- |
| 25 ± 1.2 µM | Cc1cccc(C)c1OCC(=O)N[C@@H](Cc1ccccc1)[C@@H](O)C[C@H](Cc1ccccc1)NC(=O)[C@H](C(C)C)N1CCCNC1=O [lopinavir] |  |
|  | CC(C)CN(C[C@@H](O)[C@H](Cc1ccccc1)NC(=O)O[C@H]1CCOC1)S(=O)(=O)c1ccc(N)cc1 [amprenavir] | binding of amprenavir and ritonavir were observed, albeit in lower amounts |
